# Reference: patent publication US20030175690A1 (priority 1999, published 2003)
# Target: NL4-3 protease (Human immunodeficiency virus type 1 group M subtype B, UniProt P12497)
# Settings: reference clone reconstructed with NL4-3 protease; HeLa cells; drug 0.1 μM; supernatant 48 hours after transfection
# Method: Positive colonies were grown in 5 mL LB medium, the plasmids extracted, and HeLa cells grown to 50% confluence on an 8-well plate (Costar), transfected by lipofectin (Bethesda Research Laboratories) in triplicate using pΔproΔRTΔenv (0.5 μg) containing the exogenous HIV-1 PR sequences. […] The degree of inhibition of viral expression was documented by the ratio between the levels of p24Ag detected in the presence and in the absence of the anti-viral compound (R=p24Ag^drug,/p24Ag^medium). The percent Sensitivity Index (SI%=100×R^reference/R^sample) was introduced to normalise differences due to cell related variables among different experiments. Proteases displaying SI% values greater than 80% were considered fully sensitive; partially sensitive (intermediate phenotype) between 80 and 60%; and resistant when lower than 60%.
# The HIV-1 PR coding sequences amplified from the 13 culture supernatants or directly from the 6 plasma samples were cloned into the pΔproΔRTΔenv nonreplicative backbone, and the resulting plasmids were transfected into semiconfluent HeLa cells. After 48 hours of incubation the supernatants were assayed for HIV-1 p24Ag concentration.
# This index was determined by normalising the R value of each clinical sample (R^sample) to that of the NL4-3 reference strain (R^reference) evaluated in parallel experiment, according to the function SI%=100×R^reference/R^sample.
compound,measurement,value
"CC(C)c1nc(CN(C)C(=O)N[C@H](C(=O)N[C@@H](Cc2ccccc2)C[C@H](O)[C@H](Cc2ccccc2)NC(=O)OCc2cncs2)C(C)C)cs1 [RTV, ritonavir]","production of HIV-1 p24Ag by the reference clone in the presence of drug, compared with PI-free medium",strongly inhibited
